pIC50: −log10 of the molar value.
Molecular target: Signal transducer and activator of transcription 3 (Homo sapiens, UniProt P40763)
Test: Inhibition of STAT3 in human K562 cells assessed as reduction in STAT3 phosphorylation

Signal transducer and activator of transcription 3, sequence (P40763 whole entry): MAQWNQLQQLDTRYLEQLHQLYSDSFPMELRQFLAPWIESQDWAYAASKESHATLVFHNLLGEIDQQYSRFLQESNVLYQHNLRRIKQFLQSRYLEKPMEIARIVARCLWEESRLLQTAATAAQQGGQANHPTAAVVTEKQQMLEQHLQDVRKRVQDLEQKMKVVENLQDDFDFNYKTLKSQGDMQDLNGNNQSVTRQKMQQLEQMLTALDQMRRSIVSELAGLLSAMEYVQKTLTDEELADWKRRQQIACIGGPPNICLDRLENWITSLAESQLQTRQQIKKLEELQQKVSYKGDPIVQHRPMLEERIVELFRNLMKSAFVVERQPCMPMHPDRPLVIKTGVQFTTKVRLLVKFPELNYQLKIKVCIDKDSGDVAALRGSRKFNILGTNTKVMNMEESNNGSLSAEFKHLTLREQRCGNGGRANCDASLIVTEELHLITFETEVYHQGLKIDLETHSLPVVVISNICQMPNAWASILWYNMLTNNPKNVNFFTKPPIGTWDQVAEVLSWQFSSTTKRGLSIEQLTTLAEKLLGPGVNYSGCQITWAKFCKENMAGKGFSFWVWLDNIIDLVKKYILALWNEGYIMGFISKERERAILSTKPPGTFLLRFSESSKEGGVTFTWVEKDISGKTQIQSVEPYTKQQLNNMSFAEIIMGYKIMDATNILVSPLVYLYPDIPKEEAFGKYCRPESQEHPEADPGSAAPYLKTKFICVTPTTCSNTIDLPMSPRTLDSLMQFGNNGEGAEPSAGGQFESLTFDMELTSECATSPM

Row | SMILES | pIC50
1 | CCc1ccc(Nc2nc3cc(N)ccc3o2)cc1 | 4.72
2 | CCc1ccc(Nc2nc3cc(NC(=O)c4ccccc4)ccc3o2)cc1 | 5.24
